Laboratory results taken from patent publication US10738076B2, “Lanosterol prodrug compound and preparation method therefor and use thereof” (ZHONGSHAN OPHTHALMIC CENTER, SUN YAT-SEN UNIVERSITY, priority 2017, dated 2020).
“Also recorded” adds a separate entry of the source. Like-named read-outs stand apart in the source and are kept apart here.

Assays:
[1] = ophthalmic drug penetration and drug conversion to lanosterol in vivo (aqueous humor concentration after eye drops); design: species or system New Zealand white rabbits
Description: In this study, New Zealand white rabbits (body weight was more than 2 kg, age was more than 12 weeks) were used as experimental animals. Each compound was studied with two New Zealand white rabbits. Each rabbit was instilled with […] eye drops in each eyes three eyes were used to collect aqueous humor samples and one eye was used as a backup. […] After the eye drops was dripped into the rabbit's eyes, the anterior aqueous humor was collected at 0.5, 2, 4 and 6 hours after administration. The volume of each sample was not more than 50 μL. Each animal was given mild anesthesia before collecting samples. Three samples were collected at every time point. The collected aqueous humor samples were stored in dry ice immediately after collection or stored in a refrigerator at −80±10° C. After the sample collection, the animals were euthanized. The concentration of the compound in each sample was determined using a triple quadrupole mass spectrometer (API 4000).

[2] = system: sodium selenite-induced neonatal New Zealand rabbit cataract model; experiment: sodium selenite-induced cataract model, slit lamp observation; assay type: in vivo, neonatal New Zealand rabbits; conditions: eye drops right eye 3 times every day, 42 days, compared with pre-dose
Description: (§1) P7 days old neonatal New Zealand rabbits, normal grade, and 5 young rabbits per litter were breast-fed with a mother rabbit.
(§2) The experimental young rabbits were randomly divided into 5 groups with 5 rabbits per group.
(§3) 1) Normal control group (NC): in the P10 day, young rabbits were injected subcutaneously with 0.25 mL physiological saline from the neck, and were not administered after the P15 day.
(§4) 2) Model control group (MC): in the P10 day, young rabbits were injected subcutaneously with sodium selenite solution (in physiological saline) at 20 μmol/kg body weight, and after the P15 day, drug-free blank eyes drops was dripped into the right eye 3 times every day for 42 days.
as §4, with “3) Positive” for “2) Model”, “(PC):” for “(MC):”, “kary uni eye” for “drug-free blank eyes”, “drops (Santen Pharmaceutical Co., Ltd in Japan)” for “drops”
4) Lanosterol eye drops treatment group (LT): in the P10 day, young rabbits were injected subcutaneously with sodium selenite solution (in physiological saline) at 20 μmol/kg body weight, and after the P15 day, lanosterol eye drops was dripped into the right eye 3 times every day for 42 days. […]

[3] = system: sodium selenite-induced neonatal New Zealand rabbit cataract model; experiment: sodium selenite-induced cataract model, lens transparency test in vitro; assay type: in vivo, neonatal New Zealand rabbits; conditions: after 42 days of administration
Description: as §1, §2, §3, §4
as §4, with “3) Positive” for “2) Model”, “(PC):” for “(MC):”, “kary uni eye” for “drug-free blank eyes”, “drops (Santen Pharmaceutical Co., Ltd in Japan)” for “drops”
(§5) 4) Lanosterol eye drops treatment group (LT): in the P10 day, young rabbits were injected subcutaneously with sodium selenite solution (in physiological saline) at 20 μmol/kg body weight, and after the P15 day, lanosterol eye drops was dripped into the right eye 3 times every day for 42 days.
as §5, with “5)” for “4)”, “Lanosterol prodrug 026” for “Lanosterol”, “(026):” for “(LT):”, “lanosterol prodrug 026” for “lanosterol”
2) Lens transparency test in vitro: on the last day, the animal's eyeball was dissected, the lens containing the capsule was completely separated, and the lens was placed on a grid paper (2.12×2.12 mm).

[4] = system: lens glutathione peroxidase (GSH-PX) activity; experiment: sodium selenite-induced cataract model, lens GSH-PX activity assay; assay type: in vivo, neonatal New Zealand rabbits; conditions: after 42 days of administration; for effect on lens GSH-PX activity compared to the other treatment groups: 026 vs kary uni p<0.01
Description: as §1, §2, §3, §4
as §4, with “3) Positive” for “2) Model”, “(PC):” for “(MC):”, “kary uni eye” for “drug-free blank eyes”, “drops (Santen Pharmaceutical Co., Ltd in Japan)” for “drops”
as §5
as §5, with “5)” for “4)”, “Lanosterol prodrug 026” for “Lanosterol”, “(026):” for “(LT):”, “lanosterol prodrug 026” for “lanosterol”
(§6) 3) Glutathione peroxidase (GSH-PX) activity assay: GSH-PX activity of the isolated rabbit lens in each group was determined by the method provided in the specification of GSH-PX activity detection kit (Nanjing Jiancheng Bioengineering Institute). The experimental data was analyzed by One-Way ANOVA with SPSS statistical software. The LSD method was used to compare the groups, and the statistical difference level was p<0.05.

[5] = system: ultraviolet-induced New Zealand rabbit cataract model; experiment: ultraviolet-induced cataract model, slit lamp observation; assay type: in vivo, New Zealand rabbits; conditions: ultraviolet (313 nm, 24 hours) model, eye drops right eye 3 times every day, 42 days, compared with pre-dose
Description: (§7) Adult New Zealand rabbits 2.0-2.5 kg, normal grade, male and female, a total of 25.
(§8) The experimental rabbits were randomly divided into 5 groups with 5 rabbits per group.
(§9) 1) Normal control group (NC): normal feeding, no drug administration.
(§10) 2) Model control group (MC): 313 nm UV irradiation for 24 hours to make model, then drug-free blank eye drops was dripped to the right eye 3 times every day for 42 days.
(§11) 3) Positive control group (PC): 313 nm UV irradiation for 24 hours to make model, then kary uni eye drops (Santen Pharmaceutical Co., Ltd in Japan) was dripped into the right eye 3 times every day for 42 days.
(§12) 4) Lanosterol eye drops treatment group (LT): 313 nm UV irradiation for 24 hours to make model, then lanosterol eye drops was dripped into the right eye 3 times every day for 42 days.
(§13) 5) Lanosterol prodrug 026 eye drops treatment group (026): 313 nm UV irradiation for 24 hours to make model, then the lanosterol prodrug 026 eye drops was dripped into the right eye 3 times every day for 42 days.

[6] = system: ultraviolet-induced New Zealand rabbit cataract model; experiment: ultraviolet-induced cataract model, lens transparency test in vitro; assay type: in vivo, New Zealand rabbits; conditions: after 42 days of administration
Description: as §7, §8, §9, §10, §11, §12, §13
2) lens transparency test in vitro: on the last day, the animal's eyeball was dissected, the lens containing the capsule was completely separated, and the lens was placed on a grid paper (2.12×2.12 mm).

[7] = system: lens glutathione peroxidase (GSH-PX) activity; experiment: ultraviolet-induced cataract model, lens GSH-PX activity assay; assay type: in vivo, New Zealand rabbits; conditions: after 42 days of administration; for effect on lens GSH-PX activity compared to the other treatment groups: 026 vs kary uni p<0.05
Description: as §7, §8, §9, §10, §11, §12, §13, §6

[8] = system: pre-formed lens protein aggregates; conditions: in vitro at the cellular level; background, published in Nature; cited from earlier work
cataract = conditions: background, published in Nature; cited from earlier work
[9] = 026 and kary uni p<0.01, lanosterol p>0.05
[10] = 6 hours after 250 nmol dripped into each eye of New Zealand white rabbit
[11] = in vivo, 250 nmol per eye, 0.5 hour after 250 nmol dripped into each eye of New Zealand white rabbit, read-out: Average concentration of the dripped compound itself in the aqueous humor
[12] = in vivo, 250 nmol per eye, 2 hours after 250 nmol dripped into each eye of New Zealand white rabbit, read-out: Average concentration of the dripped compound itself in the aqueous humor
[13] = listed as lanosterol prodrug 026
[14] = 026 and kary uni p<0.01, lanosterol p>0.05, listed as lanosterol prodrug 026
[15] = 0.5 hour after 250 nmol dripped into each eye of New Zealand white rabbit
[16] = 2 hours after 250 nmol dripped into each eye of New Zealand white rabbit
[17] = 4 hours after 250 nmol dripped into each eye of New Zealand white rabbit

With CC(C)=CCC[C@@H](C)[C@H]1CC[C@@]2(C)C3=C(CC[C@]12C)[C@@]1(C)CC[C@H](O)C(C)(C)[C@@H]1CC3 [Lanosterol] the concentration at 0.5 h ([1]; aqueous humor, topical, 250 nmol per eye, 0.5 hour after 250 nmol dripped into each eye of New Zealand white rabbit, read-out: Average concentration of the dripped compound itself in the aqueous humor) was 106 nM, the concentration at 2 h ([1]; aqueous humor, topical, 250 nmol per eye, 2 hours after 250 nmol dripped into each eye of New Zealand white rabbit, read-out: Average concentration of the dripped compound itself in the aqueous humor) was 496 nM and the concentration at 4 h ([1]; aqueous humor, topical, 250 nmol per eye, 4 hours after 250 nmol dripped into each eye of New Zealand white rabbit, read-out: Average concentration of the dripped compound itself in the aqueous humor) was 300 nM. The concentration at 6 h ([1]; aqueous humor, topical, 250 nmol per eye, 6 hours after 250 nmol dripped into each eye of New Zealand white rabbit, read-out: Average concentration of the dripped compound itself in the aqueous humor) was 225 nM, the “penetration into the aqueous humor / permeability” value ([1]; eye drops, rabbit, in words) was “could penetrate into the aqueous humor” and the “cataract symptoms, slit lamp observation” value [2] was “did not change significantly”. For the same compound, the “lens transparency of the administered right eye compared to the left eye (self-control)” value [3] was “no significant change in lens transparency”, the “lens GSH-PX activity compared to the MC group” value [4, 9] was “no statistical difference compared to the MC group” and the “effect on lens GSH-PX activity compared to the other treatment groups” value (from here on “effect … compared to the other treatment groups”) [4] was “significantly lower than that of 026 and kary uni”. For the same compound, the “cataract symptoms, slit lamp observation” value [5] was “did not change significantly”, the “lens transparency of the administered right eye compared to the left eye (self-control)” value [6] was “no significant change in lens transparency” and the “lens GSH-PX activity compared to the MC group” value [7, 9] was “no statistical difference compared to the MC group”. The “effect … compared to the other treatment groups” value [7] was “significantly lower than that of 026 and kary uni”, the “effect on pre-formed lens protein aggregates” value [8] was “significantly reduce pre-formed lens protein aggregates” and the “effect on cataract and lens transparency in vivo” value (cataract) was “can reverse the condition of cataract”.

For COC(=O)[C@H](C)NP(=O)(Oc1ccccc1)O[C@H]1CC[C@]2(C)C3=C(CCC2C1(C)C)[C@]1(C)CC[C@H]([C@H](C)CCC=C(C)C)[C@@]1(C)CC3 (stereo partly shown) [Compound 1], the “Average concentration of Lanosterol in the aqueous humor after the prodrug was dripped” value ([1]; 0.5 hour after 250 nmol prodrug dripped into each eye of New Zealand white rabbit) was “BQL”, the “Average concentration of Lanosterol in the aqueous humor after the prodrug was dripped” value ([1]; 2 hours after 250 nmol prodrug dripped into each eye of New Zealand white rabbit) was “BQL” and the “Average concentration of the dripped compound itself in the aqueous humor” value [1, 10] was “BQL”. For the same compound, the concentration at 0.5 h [1, 11] was 7.5 nM and the concentration at 2 h [1, 12] was 8.6 nM.

For CC(C)=CCC[C@@H](C)[C@H]1CC[C@@]2(C)C3=C(CC[C@]12C)[C@@]1(C)CC[C@H](OC(=O)c2ccccc2O)C(C)(C)C1CC3 (stereo partly shown) [Compound 8], the “Average concentration of the dripped compound itself in the aqueous humor” value [1, 10] was “BQL”, the concentration at 0.5 h [1, 11] was 41 nM and the concentration at 2 h [1, 12] was 33.3 nM. For the same compound, the concentration at 4 h ([1]; in vivo, 250 nmol per eye, 4 hours after 250 nmol dripped into each eye of New Zealand white rabbit, read-out: Average concentration of the dripped compound itself in the aqueous humor) was 25.5 nM, the “cataract symptoms, slit lamp observation” value [2, 13] was “cataract symptoms were significantly reduced; also recorded: could alleviate the cataract symptoms” and the “lens transparency of the right eye compared to the MC group” value [3] was “significantly higher than that of the MC group”. For the same compound, the “lens transparency of the right eye compared to the NC group” value [3] was “still lower than that of the NC group”, the “lens transparency of the administered right eye compared to the left eye (self-control)” value [3, 13] was “significantly higher than that of the left eye; also recorded: improve lens transparency” and the “lens GSH-PX activity compared to the MC group” value [4, 14] was “could increase the GSH-PX activity of the lens; also recorded: improve lens transparency and lens GSH-PX activity”. For the same compound, the “effect … compared to the other treatment groups” value [4] was “better than that of kary uni”, the “cataract symptoms, slit lamp observation” value [5, 13] was “cataract symptoms were significantly reduced; also recorded: could alleviate the cataract symptoms” and the “lens transparency of the right eye compared to the MC group” value [6] was “significantly higher than that of the MC group”. For the same compound, the “lens transparency of the right eye compared to the NC group” value [6] was “still lower than that of the NC group”, the “lens transparency of the administered right eye compared to the left eye (self-control)” value [6, 13] was “significantly higher than that of the left eye; also recorded: improve lens transparency” and the “lens GSH-PX activity compared to the MC group” value [7, 14] was “could increase the GSH-PX activity of the lens; also recorded: improve lens transparency and lens GSH-PX activity”. For the same compound, the “effect … compared to the other treatment groups” value [7] was “better than that of kary uni”.

For CC(C)=CCC[C@@H](C)[C@H]1CC[C@@]2(C)C3=C(CC[C@]12C)[C@@]1(C)CC[C@H](OC(=O)c2ccc([N+](=O)[O-])cc2)C(C)(C)C1CC3 (stereo partly shown) [Compound 4], the “Average concentration of the dripped compound itself in the aqueous humor” value [1, 15] was “BQL”, the “Average concentration of the dripped compound itself in the aqueous humor” value [1, 16] was “BQL” and the “Average concentration of the dripped compound itself in the aqueous humor” value [1, 17] was “BQL”. For the same compound, the “Average concentration of the dripped compound itself in the aqueous humor” value [1, 10] was “BQL”.

In the case of CC(C)=CCC[C@@H](C)[C@H]1CC[C@@]2(C)C3=C(CC[C@]12C)[C@@]1(C)CC[C@H](OC(=O)c2ncon2)C(C)(C)C1CC3 (stereo partly shown) [Compound 10], the “Average concentration of the dripped compound itself in the aqueous humor” value [1, 15] was “BQL” and the concentration at 2 h [1, 12] was 37.9 nM.

With CC(=O)Oc1ccccc1C(=O)O[C@H]1CC[C@]2(C)C3=C(CCC2C1(C)C)[C@]1(C)CC[C@H]([C@H](C)CCC=C(C)C)[C@@]1(C)CC3 (stereo partly shown) [Compound 12] the “AUC (exposure amount) of the dripped compound itself in the aqueous humor” value ([1]; 250 nmol dripped into each eye of New Zealand white rabbit) was “BQL”, the “Average concentration of the dripped compound itself in the aqueous humor” value [1, 17] was “BQL” and the “Average concentration of the dripped compound itself in the aqueous humor” value [1, 10] was “BQL”. It also gave a concentration at 0.5 h [1, 11] of 60 nM and a concentration at 2 h [1, 12] of 15.6 nM.

In the case of CC(C)=CCC[C@@H](C)[C@H]1CC[C@@]2(C)C3=C(CC[C@]12C)[C@@]1(C)CC[C@H](OC(=O)c2ccno2)C(C)(C)C1CC3 (stereo partly shown) [Compound 9], the “Average concentration of the dripped compound itself in the aqueous humor” value [1, 15] was “BQL” and the “Average concentration of the dripped compound itself in the aqueous humor” value [1, 16] was “BQL”.
